Literature values in US10406122B2 (priority 2011, dated 2019).
Where “and” joins values, the source holds several entries; their conditions need not be identical. Identical values can stand only once. Counter-ions that a name gives are not always drawn. Like-named read-outs stand apart in the source and are kept apart here.

Tests used:
[1] = cited from earlier work
[2] = oral administration; cited from earlier work
postoperative patients = settings: cited from earlier work

SMILES: COc1cccc([C@]2(O)CCCC[C@H]2CN(C)C)c1 (racemic) [Tramadol, (±)cis-2-[(dimethylamino)methyl]-1-(3-methoxyphenyl) cyclohexanol hydrochloride]
- estimated absorption of the oral dose ([1]; 100 mg PO): 86-88%
- AUC0-24 h ([1]; 100 mg i.v.): 3709 ± 977 ng·h/mL
- Vd ([1]; 100 mg i.v.): 203 L
- t1/2 ([1]; 100 mg i.v.): 5.2 h
- CL/F (total clearance) ([1]; 100 mg i.v., hydrochloride): 467 ± 124 mL/min
- CL/F (total clearance) ([1]; 100 mg i.v., listed as tramadol, hydrochloride): 710 ± 174 mL/min
- time to peak serum concentration (tmax) ([1]; 100 mg oral dosing): approximately 2 hours
- AUC0-24 h ([1]; 100 mg p.o.): 2488 ± 774 ng·h/mL
- Cmax ([1]; 100 mg p.o.): 280 ± 49 ng/mL
- Vd ([1]; 100 mg p.o.): 306 L
- t1/2 ([1]; 100 mg p.o.): 5.1 h
- CL/F (total clearance) ([1]; 100 mg p.o., hydrochloride): 710 ± 174 mL/min
- CL/F (total clearance) ([1]; 100 mg p.o., listed as tramadol, hydrochloride): 467 ± 124 mL/min
- absolute bioavailability of the oral dose ([1]; 100 mg, comparison of AUC values, hydrochloride): 68±13% and 68%
- distribution half-life in the initial phase ([1]; after IV administration): 0.31 ± 0.17 h
- half-life of slower distribution phase ([1]; after IV administration): 1.7 ± 0.4 h
- first pass metabolism ([1]; estimated): ~20%
- fertility and teratogenic effects [2]: no safety concerns with respect to fertility or teratogenic effects
- serious adverse effects (postoperative patients; loading doses up to 150 mg IV (Silvasti 2000)): not associated with any serious adverse effects
- serious adverse effects (postoperative patients; mean cumulative doses 449 to 868.3 mg over 24, 36 and 48 h): no serious adverse effects were observed
